Laboratory results from US20210046018A1 (priority 2019, published 2021).

Experiments:
rat = assay: Orbital tightening (OT) after heptanol corneal abrasion injury, pre-clinical model of PRK; type: in vivo; settings: 24 hours post-injury; topical eye drops; FIG. 6B; abrasion increases OT scores
Method: A unilateral corneal injury was performed using topical application of heptanol. FIG. 3 is a diagram of a corneal abrasion method using topical application 310 of heptanol performed on an anesthetized rat. A local anesthetic was applied to the eye 320 via ophthalmic drops. A small metal ring 330 was then secured to the corneal surface with petroleum jelly. Heptanol (10 μL) 340 was placed inside the ring for 90 seconds, the heptanol was removed from inside the ring with a cotton swab and the eye is rinsed profusely with saline. The loose corneal epithelium was then removed with a cotton applicator 350. FIG. 4 is a graph representing of acute hyperalgesia after corneal abrasion injury, illustrating that this method induces photophobia as well as hyperalgesia to ocular application of menthol. This method produces abrasions of relatively uniform size and depth, in contrast to other mechanical abrasion methods.
In various embodiments, topical (ophthalmic) application of the compositions described herein can reduce or eliminate the hyperalgesia produced by corneal abrasion in a pre-clinical model of PRK. […]
Doses of trans-resveratrol up to 4% (corresponding to up to […] in 10 μL) were tested. […] Topical application is efficacious, because resveratrol is very lipophilic and should be readily taken up into the tear film that covers the surface of the eye. […]

[1] = system: cultured trigeminal ganglion neurons; settings: caused by nerve growth factor exposure; cited from earlier work
hindpaw incision = settings: topical, cited from earlier work
[2] = cited from earlier work
sodium channels = settings: in vivo; cited from earlier work
corneal epithelium = type: in vivo, rat; settings: capsaicin application, FIG. 5C
Text: Deeper wounds may remove the basement membrane and prevent reinnervation (at least in some strains of mice).

Oc1ccc(C=Cc2cc(O)cc(O)c2)cc1 (racemic) [resveratrol]
orbital tightening (OT) scores (rat): dose-dependent trend for resveratrol to reverse this
hyperexcitability of neurons [1]: reduce hyperexcitability
hyperalgesic priming (hindpaw incision; 14-days after incision): prevents the full development
acute hyperalgesia (hindpaw incision; following hindpaw incision): attenuates

NC1=N[C@H](O)[C@H]2[C@H]3O[C@]4(O)O[C@@H]([C@@H](O)[C@@]2(N1)[C@@H]4O)[C@]3(O)CO [TTX, tetrodotoxin]
solubility in tear film [2]: not soluble in tear film
photophobia (sodium channels): can reduce the photophobia

COc1cc(CNC(=O)CCCC/C=C/C(C)C)ccc1O [capsaicin]
overall epithelial structure (H&E stain) (corneal epithelium): does not alter overall epithelial structure
